Measurements as given in PMC7442133, “Reduced treatment frequencies with bumped kinase inhibitor 1369 are effective against porcine cystoisosporosis” (International Journal for Parasitology: Drugs and Drug …, 2020).

What was measured:
[1] = Fecal drug kinetics: BKI concentrations in pooled feces by LC-MS/MS; format: in vivo, piglets
Method: Additionally, to determine exposure to BKI 1369 and its metabolites, BKI 1318 and BKI 1817, pooled fecal samples per group were collected before treatment (−24 h), 2, 24 and 48 h after treatment and at the end of the study (SD 29; experiment I). Approximately 1 g of feces was soaked overnight in 3 ml phosphate buffered saline (PBS, pH 7.4). The following day, 12 ml of acetonitrile containing 100 μM propanolol as an internal standard was added and the mixture was thoroughly vortexed and centrifuged at 1000×g for 30 min. Clear supernatant was then transferred to Eppendorf tubes and concentrated in a miVac® Duo Concentrator (SP Scientific, Pennsylvania, USA) at 35 °C. Control/blank samples spiked with known amounts of target analyte were processed in tandem to provide a standard curve. The concentrated samples were shipped to the University of Washington and were stored at −20 °C until analysis by liquid chromatography-tandem mass spectrometry (LC-MS/MS) to determine fecal pharmacokinetics. All LC-MS/MS analyses were carried out on a Waters Acquity UPLC coupled with a Xevo TQS Micro and analyzed using MassLynx software (Waters Corporation, Milford, MA, USA). Extraction and LC-MS/MS conditions are described in detail in the Supplementary File S1.
Tissue and feces from vehicle control treated piglets were used as blanks or standards. Calibration curves for BKI 1369, BKI 1318, and BKI 1817 were prepared by adding 2 μL BKI in dimethylsulfoxide (DMSO) to 18 μL tissue or feces controls to generate nominal concentrations of 0.004, 0.008, 0.02, 0.04, 0.08, 0.2, 0.4, 0.8, 2, 5, 10, and 20 μM. Calibration curves were generated separately for each tissue type and feces.
5 μL of tissue homogenate curves and samples were added to tubes that contained 95 μL of 80:20 acetonitrile: water. As an internal standard, propranolol was added to each sample to a final concentration of 20 nM. Samples were dried to completion using a miVac Duo Concentrator (SP Scientific, Pennsylvania, USA) at 35 °C. Sample processing for feces was similar but utilized a slightly different process to concentrate the sample as explained in the methods. Dried Samples were sealed and shipped to the University of Washington for LC-MS/MS analysis.

C. suis sporozoites = assay: Invasion inhibition: sporozoites pre-incubated with BKI 1369, free merozoites counted 9 dpi in IPEC-1 cultures; format: cell-based, Cystoisospora suis
Method: The laboratory strain C. suis Wien I ([Joachim and Mundt, 2011]), was maintained by passage in suckling piglets every 3–6 months and infectivity in vivo was assessed regularly at the Institute of Parasitology, University of Veterinary Medicine, Vienna. Oocysts were purified from collected feces, brought to sporulation and stored as described elsewhere ([Worliczek et al., 2013]). For in vitro studies, sporozoites were excysted ([Worliczek et al., 2013]), enumerated with a hemocytometer and used immediately for infection of semi-permanent intestinal porcine epithelial cells (IPEC-1). For in vivo studies, sporulated oocysts were washed with tap water and enumerated prior to infection of piglets.
IPEC-1 cells were maintained in culture medium at 37 °C and 5% CO2 (DHEM/HAM12 supplemented with 5% fetal calf serum and penicillin/streptomycin; Gibco via Thermo Fisher, Vienna, Austria). Cells (4 × 10^4) were used to seed 24-well plates and grown to confluence. […] Cell viability in the presence of DMSO and BKIs was determined by colorimetric cell proliferation (WST-1) assays ([Shrestha et al., 2019]). […]
In order to test whether BKI 1369 affects initial host cell invasion by C. suis, freshly excysted sporozoites were pre-incubated with BKI 1369 or DMSO for 6 h at 37 °C. […] Readout for both growth (merozoite replication) and invasion-inhibition experiments was microscopical evaluation by counting free merozoites 9 days post-infection (dpi) from culture supernatants. Supernatants were collected and free merozoites were counted in pooled samples at 9 dpi from quadruplicate wells in C-Chip disposable hemocytometers (NanoEnTek/Roth Lactan, Graz, Austria). […]
Statistical calculations for in vivo trials were performed with RStudio version 1.1.453 (RStudio Team, 2018), descriptive statistics with Microsoft Excel 2010 (Microsoft Inc., Vienna, Austria) and GraphPad Prism version 5.04 for Windows (GraphPad Software, San Diego, California USA). […] In vitro assays were evaluated by t-tests with significance reported at P < 0.05. […]

[2] = Group A (20 mg BKI 1369/kg BW; 0 dpi), SD 2, −24 h (before treatment)
[3] = Group A (20 mg BKI 1369/kg BW; 0 dpi), SD 3, 2 h post first-dose
[4] = Group A (20 mg BKI 1369/kg BW; 0 dpi), SD 4, 24 h post first-dose
[5] = Group A (20 mg BKI 1369/kg BW; 0 dpi), SD 5, 48 h post first-dose
[6] = Group A (20 mg BKI 1369/kg BW; 0 dpi), SD 29, 624 h post first-dose
[7] = Group A: single treatment 20 mg BKI 1369/kg on SD 3, pooled feces
[8] = Group A: single treatment 20 mg BKI 1369/kg on SD 3, pooled feces, post dose
[9] = Group B (20 mg BKI 1369/kg BW; 2 dpi), SD 4, −24 h (before treatment)
[10] = Group B (20 mg BKI 1369/kg BW; 2 dpi), SD 5, 2 h post first-dose
[11] = Group B (20 mg BKI 1369/kg BW; 2 dpi), SD 6, 24 h post first-dose
[12] = Group B (20 mg BKI 1369/kg BW; 2 dpi), SD 7, 48 h post first-dose
[13] = Group B (20 mg BKI 1369/kg BW; 2 dpi), SD 29, 576 h post first-dose
[14] = Group B: single treatment 20 mg BKI 1369/kg on SD 5, pooled feces
[15] = Group B: single treatment 20 mg BKI 1369/kg on SD 5, pooled feces, post-dose
[16] = Group C (20 mg BKI 1369/kg BW; 2 and 4 dpi), SD 4, −24 h (before treatment)
[17] = Group C (20 mg BKI 1369/kg BW; 2 and 4 dpi), SD 5, 2 h post first-dose
[18] = Group C (20 mg BKI 1369/kg BW; 2 and 4 dpi), SD 6, 24 h post first-dose
[19] = Group C (20 mg BKI 1369/kg BW; 2 and 4 dpi), SD 7, 48/2 h post 2nd dose
[20] = Group C (20 mg BKI 1369/kg BW; 2 and 4 dpi), SD 8, 72/24 h post 2nd dose
[21] = Group C (20 mg BKI 1369/kg BW; 2 and 4 dpi), SD 9, 96/48 h post 2nd dose
[22] = Group C (20 mg BKI 1369/kg BW; 2 and 4 dpi), SD 29, 576/528 h post 2nd dose
[23] = Group C: 20 mg BKI 1369/kg on SD 5 and SD 7, pooled feces, post first-dose

Row | SMILES | Concentration in pooled fecal samples [1, 2] | Concentration in pooled fecal samples [1, 3] | Concentration in pooled fecal samples [1, 4] | Concentration in pooled fecal samples [1, 5] | Concentration in pooled fecal samples [1, 6] | Cmax [1, 7] | Fecal Tmax [1, 8] | Concentration in pooled fecal samples [1, 9] | Concentration in pooled fecal samples [1, 10] | Concentration in pooled fecal samples [1, 11] | Concentration in pooled fecal samples [1, 12] | Concentration in pooled fecal samples [1, 13] | Cmax [1, 14] | Fecal Tmax [1, 15] | Concentration in pooled fecal samples [1, 16] | Concentration in pooled fecal samples [1, 17] | Concentration in pooled fecal samples [1, 18] | Concentration in pooled fecal samples [1, 19] | Concentration in pooled fecal samples [1, 20] | Concentration in pooled fecal samples [1, 21] | further results
1 | CCOc1ccc2cc(-c3nn(CC4CCNCC4)c4ncnc(N)c34)ccc2n1 [BKI 1318] | 0 nM | 0 nM | 300 nM | 400 nM | 0 nM | 400 nM | 48 h | 0 nM | 0 nM | 0 nM | 700 nM | 0 nM | 700 nM | 48 h | 0 nM | 0 nM | 300 nM | 1900 nM | 3600 nM | 7000 nM | Concentration in pooled fecal samples [1, 22]: 300 nM; Cmax ([1]; Group C: 20 mg BKI 1369/kg on SD 5 and SD 7, pooled feces): 7000 nM; Fecal Tmax [1, 23]: 96 h; Excretion via the feces (in words) ([1]; after oral BKI 1369, piglets): relatively low excretion via the feces
2 | CCOc1ccc2cc(-c3nn(CC4CCN(C)CC4)c4ncnc(N)c34)ccc2n1 [BKI 1369] | 0 nM | 800 nM | 8100 nM | 5500 nM | 0 nM | 8100 nM | 24 h | 0 nM | 0 nM | 800 nM | 3000 nM | 0 nM | 3000 nM | 48 h | 0 nM | 0 nM | 4500 nM | 37000 nM | 19700 nM | 29200 nM | Concentration in pooled fecal samples [1, 22]: 0 nM; Fecal Tmax [1, 23]: 48 h; Time of fecal peak, in general ([1]; all groups, metabolite levels continued to rise beyond 48 h): 24 to 48 h; Pre-incubation concentrations that significantly reduced total merozoite counts at 9 dpi (C. suis sporozoites; sporozoites pre-incubated 6 h at 37 °C, washed, IPEC-1, P < 0.05 vs DMSO-only and no-treatment): ≥ 200 nM; Pre-incubation concentrations that completely failed to inhibit host cell invasion (C. suis sporozoites; sporozoites pre-incubated 6 h at 37 °C, washed, IPEC-1, vs DMSO-only and no-treatment): ≤ 100 nM; Inhibition of infection in vitro by pre-incubation of sporozoites (C. suis sporozoites; unless treatment was prolonged post-infection): completely failed to inhibit the infection
